According to patent US11026943B2, “Aminoquinoline derivatives and uses thereof” (UNIVERSITY OF DELHI, priority 2012, dated 2021):

Experiment: Solubility (solvent listed in compound tables)
Format: physicochemical
[1] = solvents listed for the compound

Row | SOLUBILITY (solvent named, Table 4) | SOLUBILITY [1] | Structure (SMILES)
1 | DMSO | – | COc1cc(Nc2ccnc(NCCCCNc3ccnc4cc(Cl)ccc34)n2)cc(OC)c1 [DKG831]
2 | DMSO | – | Cc1cc(Nc2ccc(Br)cc2)nc(NCCCNc2ccnc3cc(Cl)ccc23)n1 [DKG850]
3 | DMSO | – | Cc1cc(Nc2ccc(Br)cc2)nc(NCCCCNc2ccnc3cc(Cl)ccc23)n1 [DKG851]
4 | DMSO | – | Cc1ccc(Nc2cc(C)nc(NCCNc3ccnc4cc(Cl)ccc34)n2)cc1 [DKG857]
5 | DMSO | – | Cc1ccc(Nc2cc(C)nc(NCCCCNc3ccnc4cc(Cl)ccc34)n2)cc1 [DKG859]
6 | – | MeOH, DMSO | OCCCNc1nccc(NCCCNc2ccnc3cc(Cl)ccc23)n1 [MT1-121]
7 | – | MeOH, DMSO | OCCNc1nccc(NCCCNc2ccnc3cc(Cl)ccc23)n1 [MT1-127]
8 | – | MeOH, DMSO | OCCCCCCNc1nccc(NCCCNc2ccnc3cc(Cl)ccc23)n1 [MT1-132]
9 | – | MeOH, DMSO | Cc1cc(NCCCNc2ccnc3cc(Cl)ccc23)nc(NCCCO)n1 [MT1-146]
10 | – | MeOH, DMSO | Cc1cc(NCCCNc2ccnc3cc(Cl)ccc23)nc(NCCCCO)n1 [MT1-147]
11 | – | MeOH, DMSO | Cc1cc(NCCCNc2ccnc3cc(Cl)ccc23)nc(NCCCCCO)n1 [MT1-148]
12 | – | MeOH, DMSO | OCCNc1nccc(NCCCCNc2ccnc3cc(Cl)ccc23)n1 [MT1-156]
13 | – | MeOH, DMSO | OCCCCCNc1nccc(NCCCCNc2ccnc3cc(Cl)ccc23)n1 [MT1-162]
14 | – | MeOH, DMSO | Cc1cc(NCCNc2ccnc3cc(Cl)ccc23)nc(NCCCCO)n1 [MT1-189]
15 | – | MeOH, DMSO | Cc1cc(NCCCCNc2ccnc3cc(Cl)ccc23)nc(NCCCO)n1 [MT1-193]

Continued, compound first:

Row | Structure (SMILES) | SOLUBILITY (solvent named, Table 4) | SOLUBILITY [1]
16 | COc1cc(Nc2ccnc(NCCCNc3ccnc4cc(Cl)ccc34)n2)cc(OC)c1 [DKG830] | DMSO | –
17 | Cc1cc(Nc2ccccc2)nc(NCCNc2ccnc3cc(Cl)ccc23)n1 [DKG833] | DMSO | –
18 | Cc1cc(Nc2ccccc2)nc(NCCCNc2ccnc3cc(Cl)ccc23)n1 [DKG834] | DMSO | –
19 | COc1ccc(Nc2cc(C)nc(NCCCNc3ccnc4cc(Cl)ccc34)n2)cc1 [DKG838] | DMSO | –
20 | COc1ccc(Nc2cc(C)nc(NCCCCNc3ccnc4cc(Cl)ccc34)n2)cc1 [DKG839] | DMSO | –
21 | Cc1cc(Nc2ccc(Cl)cc2)nc(NCCCNc2ccnc3cc(Cl)ccc23)n1 [DKG846] | DMSO | –
22 | Cc1cc(Nc2ccc(Cl)cc2)nc(NCCCCNc2ccnc3cc(Cl)ccc23)n1 [DKG847] | DMSO | –
23 | Cc1cc(Nc2ccc(F)cc2)nc(NCCCNc2ccnc3cc(Cl)ccc23)n1 [DKG854] | DMSO | –
24 | Cc1cc(Nc2ccc(F)cc2)nc(NCCCCNc2ccnc3cc(Cl)ccc23)n1 [DKG855] | DMSO | –
25 | Cc1ccc(Nc2cc(C)nc(NCCCNc3ccnc4cc(Cl)ccc34)n2)cc1 [DKG858] | DMSO | –
26 | OCCCCNc1nccc(NCCCNc2ccnc3cc(Cl)ccc23)n1 [MT1-122] | – | MeOH, DMSO
27 | OCCCCCNc1nccc(NCCCNc2ccnc3cc(Cl)ccc23)n1 [MT1-128] | – | MeOH, DMSO
28 | Cc1cc(NCCCNc2ccnc3cc(Cl)ccc23)nc(NCCO)n1 [MT1-145] | – | MeOH, DMSO
29 | OCCCNc1nccc(NCCCCNc2ccnc3cc(Cl)ccc23)n1 [MT1-157] | – | MeOH, DMSO
30 | OCCCCNc1nccc(NCCCCNc2ccnc3cc(Cl)ccc23)n1 [MT1-158] | – | MeOH, DMSO
31 | OCCCCCCNc1nccc(NCCCCNc2ccnc3cc(Cl)ccc23)n1 [MT1-163] | – | MeOH, DMSO
32 | Cc1cc(NCCNc2ccnc3cc(Cl)ccc23)nc(NCCO)n1 [MT1-185] | – | MeOH, DMSO
33 | Cc1cc(NCCNc2ccnc3cc(Cl)ccc23)nc(NCCCO)n1 [MT1-186] | – | MeOH, DMSO
34 | Cc1cc(NCCNc2ccnc3cc(Cl)ccc23)nc(NCCCCCO)n1 [MT1-190] | – | MeOH, DMSO
35 | Cc1cc(NCCNc2ccnc3cc(Cl)ccc23)nc(NCCCCCCO)n1 [MT1-191] | – | MeOH, DMSO
36 | Cc1cc(NCCCCNc2ccnc3cc(Cl)ccc23)nc(NCCO)n1 [MT1-192] | – | MeOH, DMSO
